In ChEMBL document CHEMBL1201862, “PubChem BioAssay data set” (2004):
Active and inactive are the calls of the source.

Key:
[1] = target: T1, Polyadenylate-binding protein 1 (Homo sapiens, UniProt P11940); test: MLLE binding blockers, Cy5 peptide tracer – biochemical, fluorescence polarization, Cy5-PAM2 peptide, secondary, miRNA deadenylation inhibitor project, dose response (AID 602260); assay type: functional; settings: read-out: IC50_Mean
[2] = target: T1, Polyadenylate-binding protein 1; test: MLLE domain peptide-binding blockers, IC50 – biochemical, fluorescence polarization, FITC-PAM2 peptide, dose response (AID 602259); assay type: functional; settings: read-out: IC50_Mean
[3] = target: Ras and Rab interactor 1/Tyrosine-protein kinase ABL1 (Homo sapiens, UniProt P00519+Q13671); assay type: functional;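 further: biochemical TR-FRET dose-response test measuring inhibition of binding between Rin1 and Abl proteins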
[4] = target: Nonstructural protein 1 (Influenza A virus, UniProt Q194T2); assay type: functional, Influenza A virus (A/California/07/2009(H1N1))
[5] = target: Paired box protein Pax-8 (Homo sapiens, UniProt Q06710); test: PAX8 transcriptional activity inhibition in RMG-I – RMG-I cells, luciferase, cherry-pick, dose response (AID 687027); assay type: functional, cell-based;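 further: luciferase reporter driven by Pax8 target thyroperoxidase promoter measured by SteadyGlo luminescence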
[6] = viability loss in HEK293 cells – cell-based, plate reader, cherry-picked samples, cytotoxicity control, dose response (AID 743446); assay type: functional
[7] = blockade of melanocortin 4 receptor signaling – cell-based, plate reader, cherry pick, counter-screen for LGR2 antagonist project, dose response (AID 743444); assay type: functional;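 further: transfected HEK 293 cells stimulated with alpha-MSH peptide; potency of inhibitors of the alpha-MSH evoked signal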
[8] = tested on: Vero; test: cells; assay type: functional; settings: Chlorocebus sabaeus
[9] = blockers of bursicon-stimulated LGR2 cAMP reporter – cell-based, HEK293, CRE-luciferase reporter, cherry pick, set 2, dose response (AID 743343); assay type: functional;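 further: transfected cells were stimulated with diluted bursicon conditioned medium after compound addition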
[10] = A549 cell cytotoxicity, dose response, cytotoxicity control, plate reader, cherry-pick, antagonist series (AID 743412); assay type: functional, cell-based
[11] = target: Induced myeloid leukemia cell differentiation protein Mcl-1 (Homo sapiens, UniProt Q07820); assay type: functional
[12] = cells; assay type: functional, cell-based
[13] = target: Glucose-6-phosphate 1-dehydrogenase (Homo sapiens, UniProt P11413); test: inhibition of Homo sapiens G6PD, dose series – biochemical, fluorescence, selectivity assay for P. falciparum G6PD inhibitor project, dose response (AID 504792); assay type: functional
[14] = cells; assay type: functional, cell-based; remark: listed apart in the source
[15] = tested on: HEK293; test: NOD2 signaling inhibitors in MDP-stimulated cells, cell-based, uHTS, luminescence (AID 2001); assay type: functional; settings: Homo sapiens
[16] = tested on: HEK293; test: cells; assay type: functional, cell-based; settings: Homo sapiens
[17] = tested on: HEK293; test: inhibition of NOD1-driven NF-kB reporter – cell-based, luminescence, uHTS, primary screen (AID 1578); assay type: functional; settings: Homo sapiens
[18] = tested on: HEK293; test: cells; assay type: functional, cell-based; settings: Homo sapiens; remark: listed apart in the source
[19] = blockers of HIV-1 ZM109 envelope-driven cell-cell fusion – HeLa effector, CEM target cells, luciferase, cherry-pick, dose response (AID 652058); assay type: functional, cell-based;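 further: luciferase signal from HIV-1 Env mediated cell-cell fusion of effector and target cells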
[20] = target: Voltage-dependent T-type calcium channel subunit alpha-1H (Homo sapiens, UniProt O95180); assay type: functional;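 further: channel activity triggered by adding a high calcium stimulation buffer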
[21] = microbe, parasite or virus in culture; assay type: functional; settings: Mycobacterium tuberculosis
[22] = HIV-1 AD8 envelope cell-cell fusion blockers – cherry-pick, dose response (AID 652062); assay type: functional, cell-based;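 further: luciferase signal from cell-cell fusion driven by HIV-1 clade B AD8 Env; potency is for inhibitors of fusion seen as a drop in luminescence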
[23] = reduction of Shn3 3'UTR-driven luciferase in osteoblasts – cell-based, Clone20 osteoblasts, firefly luciferase, cherry-picked, dose response (AID 624132); assay type: functional;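 further: firefly luciferase luminescence from reporter carrying the Shn3 3'UTR in osteoblasts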
[24] = non-specific 3'UTR reporter inhibition in Clone20-Shn3RL – cell-based, Renilla luciferase, cherry-picked, counter-screen for Shn3 inhibitor project, dose response (AID 624133); assay type: functional

Sequence of Induced myeloid leukemia cell differentiation protein Mcl-1 (Q07820 whole entry): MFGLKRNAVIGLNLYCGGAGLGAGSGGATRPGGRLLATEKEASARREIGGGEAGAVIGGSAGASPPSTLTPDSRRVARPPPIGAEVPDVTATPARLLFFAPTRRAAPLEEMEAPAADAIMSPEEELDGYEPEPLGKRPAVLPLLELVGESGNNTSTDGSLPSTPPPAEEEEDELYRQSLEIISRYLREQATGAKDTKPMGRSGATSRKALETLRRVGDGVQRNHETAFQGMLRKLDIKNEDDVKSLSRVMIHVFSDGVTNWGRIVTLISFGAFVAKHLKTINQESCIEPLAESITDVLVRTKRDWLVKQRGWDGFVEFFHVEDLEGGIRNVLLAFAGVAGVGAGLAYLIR
T1 sequence (P11940 whole entry, the tested form may be a part): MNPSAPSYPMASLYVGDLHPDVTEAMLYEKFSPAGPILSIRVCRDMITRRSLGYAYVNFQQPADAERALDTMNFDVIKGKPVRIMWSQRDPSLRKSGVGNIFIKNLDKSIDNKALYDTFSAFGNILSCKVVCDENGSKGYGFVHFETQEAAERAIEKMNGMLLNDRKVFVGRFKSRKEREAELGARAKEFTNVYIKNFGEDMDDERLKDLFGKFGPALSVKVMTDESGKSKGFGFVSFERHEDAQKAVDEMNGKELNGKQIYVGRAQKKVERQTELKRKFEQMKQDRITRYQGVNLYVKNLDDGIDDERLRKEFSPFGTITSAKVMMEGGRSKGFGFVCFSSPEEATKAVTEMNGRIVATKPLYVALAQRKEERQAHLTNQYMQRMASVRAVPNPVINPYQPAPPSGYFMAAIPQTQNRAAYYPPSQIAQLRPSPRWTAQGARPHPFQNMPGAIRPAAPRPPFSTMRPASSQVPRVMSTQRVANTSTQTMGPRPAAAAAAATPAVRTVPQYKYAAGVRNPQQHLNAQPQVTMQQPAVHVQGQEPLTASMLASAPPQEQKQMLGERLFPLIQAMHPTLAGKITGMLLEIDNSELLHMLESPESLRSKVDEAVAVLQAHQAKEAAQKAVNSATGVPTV
Sequence of Voltage-dependent T-type calcium channel subunit alpha-1H (O95180 whole entry): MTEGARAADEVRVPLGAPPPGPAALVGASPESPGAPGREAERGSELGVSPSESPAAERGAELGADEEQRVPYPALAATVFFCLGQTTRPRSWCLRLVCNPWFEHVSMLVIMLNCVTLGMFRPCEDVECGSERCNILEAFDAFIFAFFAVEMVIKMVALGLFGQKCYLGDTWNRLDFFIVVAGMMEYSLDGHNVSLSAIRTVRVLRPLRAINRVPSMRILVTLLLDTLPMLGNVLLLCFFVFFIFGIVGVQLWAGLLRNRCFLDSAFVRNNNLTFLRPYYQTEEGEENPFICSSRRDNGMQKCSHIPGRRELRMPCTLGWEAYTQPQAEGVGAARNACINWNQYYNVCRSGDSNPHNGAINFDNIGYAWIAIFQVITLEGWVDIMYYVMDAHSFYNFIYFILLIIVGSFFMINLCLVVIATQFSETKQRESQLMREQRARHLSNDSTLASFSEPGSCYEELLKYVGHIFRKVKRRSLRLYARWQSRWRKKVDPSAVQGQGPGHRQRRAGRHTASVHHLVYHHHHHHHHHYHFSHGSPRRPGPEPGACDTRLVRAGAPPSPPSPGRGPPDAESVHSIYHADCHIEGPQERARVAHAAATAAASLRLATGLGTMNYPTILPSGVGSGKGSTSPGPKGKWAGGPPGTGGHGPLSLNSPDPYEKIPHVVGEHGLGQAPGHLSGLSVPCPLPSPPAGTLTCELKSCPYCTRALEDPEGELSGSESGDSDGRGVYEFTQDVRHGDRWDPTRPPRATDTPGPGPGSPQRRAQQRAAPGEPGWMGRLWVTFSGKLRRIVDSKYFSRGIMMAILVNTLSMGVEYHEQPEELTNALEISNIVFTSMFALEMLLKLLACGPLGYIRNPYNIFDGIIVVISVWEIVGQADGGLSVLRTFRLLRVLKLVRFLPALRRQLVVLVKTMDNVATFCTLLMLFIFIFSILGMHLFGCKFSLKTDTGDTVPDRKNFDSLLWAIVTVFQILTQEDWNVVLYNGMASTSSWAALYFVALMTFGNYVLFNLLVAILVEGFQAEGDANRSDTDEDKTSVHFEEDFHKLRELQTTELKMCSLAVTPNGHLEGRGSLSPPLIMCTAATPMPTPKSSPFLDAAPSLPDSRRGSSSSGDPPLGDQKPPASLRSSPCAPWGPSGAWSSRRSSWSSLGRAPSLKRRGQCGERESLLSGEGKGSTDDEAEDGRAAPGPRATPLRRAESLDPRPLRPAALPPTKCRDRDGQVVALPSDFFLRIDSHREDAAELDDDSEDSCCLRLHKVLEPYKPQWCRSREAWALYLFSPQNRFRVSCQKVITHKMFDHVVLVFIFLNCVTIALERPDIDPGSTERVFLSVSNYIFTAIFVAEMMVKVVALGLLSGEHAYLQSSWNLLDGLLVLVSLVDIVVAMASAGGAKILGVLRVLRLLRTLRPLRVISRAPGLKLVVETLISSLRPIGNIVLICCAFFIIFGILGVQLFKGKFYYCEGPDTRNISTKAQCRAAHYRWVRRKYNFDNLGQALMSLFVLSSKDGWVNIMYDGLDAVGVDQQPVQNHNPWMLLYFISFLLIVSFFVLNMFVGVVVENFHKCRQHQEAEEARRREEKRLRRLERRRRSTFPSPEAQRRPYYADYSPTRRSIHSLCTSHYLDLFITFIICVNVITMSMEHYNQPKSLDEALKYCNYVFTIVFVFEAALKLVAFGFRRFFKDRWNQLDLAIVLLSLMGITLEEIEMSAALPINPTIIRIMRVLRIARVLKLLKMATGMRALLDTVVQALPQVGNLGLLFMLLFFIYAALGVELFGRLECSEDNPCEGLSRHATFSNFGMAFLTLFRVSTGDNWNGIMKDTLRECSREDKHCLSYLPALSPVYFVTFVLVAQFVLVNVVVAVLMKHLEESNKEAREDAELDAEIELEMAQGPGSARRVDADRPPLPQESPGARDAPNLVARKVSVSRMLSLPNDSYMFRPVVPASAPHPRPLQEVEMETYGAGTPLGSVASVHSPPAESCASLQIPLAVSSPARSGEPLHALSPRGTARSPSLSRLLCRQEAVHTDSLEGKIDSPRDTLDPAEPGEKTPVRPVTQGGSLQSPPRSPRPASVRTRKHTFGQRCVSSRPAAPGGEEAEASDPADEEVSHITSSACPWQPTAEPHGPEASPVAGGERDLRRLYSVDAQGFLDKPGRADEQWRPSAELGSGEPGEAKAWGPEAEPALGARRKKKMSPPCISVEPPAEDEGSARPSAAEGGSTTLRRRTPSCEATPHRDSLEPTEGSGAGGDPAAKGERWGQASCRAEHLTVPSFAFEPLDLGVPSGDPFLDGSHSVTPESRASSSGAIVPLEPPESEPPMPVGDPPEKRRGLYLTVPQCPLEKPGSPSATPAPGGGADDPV
Sequence of Nonstructural protein 1 (Q194T2 whole entry): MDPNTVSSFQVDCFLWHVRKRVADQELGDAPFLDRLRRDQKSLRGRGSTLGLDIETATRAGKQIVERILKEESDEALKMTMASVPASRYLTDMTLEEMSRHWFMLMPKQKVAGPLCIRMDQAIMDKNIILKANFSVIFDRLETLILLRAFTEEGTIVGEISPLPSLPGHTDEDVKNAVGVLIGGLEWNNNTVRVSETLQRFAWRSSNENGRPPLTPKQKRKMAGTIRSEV
Sequence of Glucose-6-phosphate 1-dehydrogenase (P11413 whole entry): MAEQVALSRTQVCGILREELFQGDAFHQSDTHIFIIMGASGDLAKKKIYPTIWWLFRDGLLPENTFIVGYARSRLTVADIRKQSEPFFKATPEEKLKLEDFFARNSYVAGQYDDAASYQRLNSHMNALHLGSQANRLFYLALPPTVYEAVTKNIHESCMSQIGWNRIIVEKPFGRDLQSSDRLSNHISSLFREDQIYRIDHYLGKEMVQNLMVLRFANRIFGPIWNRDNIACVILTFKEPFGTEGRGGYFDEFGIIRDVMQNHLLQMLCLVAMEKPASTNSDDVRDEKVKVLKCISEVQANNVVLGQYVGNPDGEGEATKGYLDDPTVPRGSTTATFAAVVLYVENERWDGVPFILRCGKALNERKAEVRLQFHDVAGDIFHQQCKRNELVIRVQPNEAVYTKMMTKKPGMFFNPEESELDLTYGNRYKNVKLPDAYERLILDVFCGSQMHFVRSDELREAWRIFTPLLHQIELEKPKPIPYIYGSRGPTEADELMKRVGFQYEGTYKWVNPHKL
Sequence of Paired box protein Pax-8 (Q06710 whole entry): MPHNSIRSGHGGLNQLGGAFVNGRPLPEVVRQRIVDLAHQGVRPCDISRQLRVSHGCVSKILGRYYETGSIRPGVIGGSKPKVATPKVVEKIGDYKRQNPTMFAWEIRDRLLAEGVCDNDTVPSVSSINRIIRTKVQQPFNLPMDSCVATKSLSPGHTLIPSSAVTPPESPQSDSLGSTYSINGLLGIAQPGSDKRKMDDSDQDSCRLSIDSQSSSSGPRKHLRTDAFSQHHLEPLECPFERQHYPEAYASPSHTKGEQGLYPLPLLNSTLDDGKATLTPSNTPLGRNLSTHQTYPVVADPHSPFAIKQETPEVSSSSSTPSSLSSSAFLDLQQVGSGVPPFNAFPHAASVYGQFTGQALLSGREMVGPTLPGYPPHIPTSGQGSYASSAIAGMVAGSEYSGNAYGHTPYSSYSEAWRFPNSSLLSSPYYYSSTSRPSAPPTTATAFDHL

Compound: CN(CCC(=O)c1ccccc1)CCC(=O)c1ccccc1
- IC50 [1]: > 66 µM (inactive)
- IC50 [2]: > 66 µM (inactive)

Compound: Cc1ccc(N2C(S)=NC3c4cc(Cl)ccc4OC2(C)C3C(=O)N(C)C)cc1 (stereo not given)
- IC50 [1]: > 66 µM (inactive)
- IC50 [2]: > 66 µM (inactive)

Compound: CCCCN1C(=O)NC2NC(=O)NC21 (stereo not given)
- IC50 [3]: 0.905 µM (active)
- IC50 [4]: > 100 µM (active)

Compound: CCc1ccc(OS(=O)(=O)c2cn(C)c(=O)n(C)c2=O)cc1
- IC50 [1]: > 66 µM (inactive)
- IC50 [2]: > 66 µM (inactive)

Compound: Cn1nnnc1Sc1ncnc2scc(-c3ccc4c(c3)OCO4)c12
- AC50 [5]: 0.747 µM (active)
- AC50 [6]: 28.8 µM (active)
- AC50 [7]: 1.34 µM (active)
- CC50 [8]: 24 µM (active)
- AC50 [9]: 0.695 µM (active)
- AC50 [10]: 14.4 µM (active)

Compound: COc1cccc2c(S)c(CCC(C)=O)c(C)nc12
- IC50 [11]: < 0.4 µM (active)

Compound: NC(=O)c1nn(CC(=O)Nc2ccc3c(c2)OCO3)cc1[N+](=O)[O-]
- IC50 [11]: 15.3 µM (not active)

Compound: Cc1noc(C(=O)Nc2sc3c(c2C#N)CCC3)c1Cl
- EC50 [12]: > 350 µM (not active)
- IC50 [13]: 47.5 µM (inactive)
- EC50 [14]: 57 µM (active)

Compound: COc1ccc(OCC(=O)Nc2nnc(-c3ccco3)s2)cc1
- IC50 [11]: 2.82 µM (active)

Compound: CC(=O)NC(c1ccco1)c1ccc2cccnc2c1O (stereo not given)
- IC50 [15]: > 20 µM (inactive)
- IC50 [16]: > 20 µM (inactive)
- EC50 [17]: > 20 µM (inactive)
- IC50 [18]: > 20 µM (inactive)
- IC50 [4]: 12.5 µM (active)

Compound: CN(C)c1ccc(CC(=O)c2nc3ccccc3s2)cc1
- IC50 [11]: 2.73 µM (active)

Compound: COc1ccccc1CN(C)C(=O)CN1CCN(C(=O)c2cccs2)CC1
- AC50 [19]: 32.8 µM (active)

Compound: Cc1ccc(-n2c(Cc3cccn3C)nnc2SCC(=O)NCc2ccc3c(c2)OCO3)cc1
- EC50 [20]: 1.31 µM (active)

Compound: CS(=O)(=O)N(CC(=O)N1CCN(c2ccccc2)CC1)c1ccc(Cl)c(C(F)(F)F)c1
- EC50 [20]: 5.13 µM (active)

Compound: COc1ccc(NC(=O)c2ccc(Cl)c(S(=O)(=O)N3CCc4ccccc4C3)c2)cn1
- CC50 [21]: > 40 µM (active)
- AC50 [19]: 1.95 µM (active)
- AC50 [22]: 19.4 µM (active)

Compound: COc1ccc(NS(=O)(=O)c2ccc(NC(=O)C(CCSC)NC(N)=O)cc2)cc1 (stereo not given)
- AC50 [23]: > 70 µM (inactive)
- AC50 [24]: 26.9 µM (active)

Compound: Cc1nn(Cc2ccccc2)c(C)c1NC(=O)c1cc(-c2cccs2)on1
- EC50 [20]: 2.71 µM (active)
